Measured values taken from paper PMC11645267, “Novel pharmacologic inhibition of lysine-specific demethylase 1 as a potential therapeutic for glioblastoma” (Cancer Gene Therapy, 2024).

Assays:
[1] = test system: GSC cells; experiment: RNA-seq analysis of enhancer/super-enhancer related genes; assay type: cell-based, human; conditions: 5 μM, 96 h, relative to DMSO
Method: GSC cells treated with either DMSO (n = 4) or S2172 (5 μM, n = 4) for 96 h and total RNA was isolated with RNeasy mini kit (Qiagen). The RNA purity was determined using Agilent Tape Station (Agilent Technologies). Illumina TruSeq RNA sample preparation was conducted and the samples were run on an Illumina Hiseq XTen (Illumina). RNA-seq was aligned using HISAT2 under default setting to Homo Sapience hg38 [35]. TPM were generated using StringTie and differential expression analysis were performed using DESeq2 [37].
RNA-seq analysis was conducted to examine gene expression changes associated with super-enhancers/enhancers. Among the genes with de novo H3K4me2 modification, the average log2 fold changes (S2172 treatment relative to DMSO treatment) were −0.12 ± 0.03 for super-enhancer-related genes and −0.01 ± 0.01 for typical enhancer-related genes (P = 0.0004) (Supplementary Fig. S6B). In contrast, among the genes with increased H3K4me2 modification, the average log2 fold changes were −0.04 ± 0.01 for super-enhancer-related genes and −0.07 ± 001 for typical enhancer-related genes (P = 0.028) (Supplementary Fig. S6C).

[2] = test system: KINGS1 and F3 cells; experiment: PARP cleavage (apoptosis) by western blot; assay type: cell-based; conditions: KINGS1 and F3, 5 μM
Text: Super-enhancers consist of enhancer clusters with abundant binding of transcription factors and are highly enriched with H3K27ac marks. The H3K4me2 increased regions included the MYC locus and H3K4me2 de novo regions comprised Nestin and SOX2 loci (Fig. 2F, Supplementary Fig. S5A). These regions were also identified as super-enhancers in GSCs using data from our previous study (Fig. 2F). Compared to the large increase in H3K4me2 in these regions, changes in H3K4me3 were subtle after S2172 treatment (only 2582 regions were acquired modification) (Fig. 2C). Increasing the me2/me3 ratio at H3K4 is associated with reduced gene expression.
Supplementary Figure. S3 Shinjo K. et al […]
B. Western blot analysis of LSD1,MYC, Nestin, SOX2,and ACTB in same cells as shown in panel A. ACTB was used as a loading control. […] Quantification of signal intensities of the Western blot (right panel). […] Right panel: Quantification of band signal intensities from the Western blot. […] The ratio was calculated by dividing the cleaved PARP band intensity by the full-length PARP band intensity. […]
A. Left panel: Western blot analysis of H3K4me1, H3K4me2, H3K4me3, and H3K9me2 after treatment with either DMSO or S2172 5μM for 96 h in normal neural stem cell F3 . […] Right panel: Quantification of signal intensities of the Western blot. […]
C. […] Right panel: Quantification of band signal intensities from the Western blot. […]

## NC1CCC(NC2CC2c2cc(F)cc(F)c2OCc2ccccc2)CC1 (centres unmarked) [S2172]
[1]
  average log2 fold change of expression, super-enhancer-related genes with de novo H3K4me2: −0.12 ± 0.03
  average log2 fold change of expression, super-enhancer-related genes with increased H3K4me2: −0.04 ± 0.01
  average log2 fold change of expression, typical enhancer-related genes with de novo H3K4me2: −0.01 ± 0.01
  average log2 fold change of expression, typical enhancer-related genes with increased H3K4me2: −0.07 ± 001
[2]
  cleaved-PARP levels: not significantly increased
